Values quoted from earlier work as cited in patent US20140107050A1, “INCREASING BIOAVAILABILITY OF N-COUMAROYLDOPAMINE THROUGH CO-ADMINISTRATION WITH A CATECHOL-O-[…] (COMT) INHIBITOR” (Redefine Nutrition, LLC, priority 2012, published 2014).

Tests used:
[1] = target: T1, catechol-o-methyltransferase (COMT) (Homo sapiens, UniProt P21964); settings: values taken from cited literature; read-out: half maximal inhibitory concentration (IC50) for COMT inhibition
T1 sequence (P21964 1-271): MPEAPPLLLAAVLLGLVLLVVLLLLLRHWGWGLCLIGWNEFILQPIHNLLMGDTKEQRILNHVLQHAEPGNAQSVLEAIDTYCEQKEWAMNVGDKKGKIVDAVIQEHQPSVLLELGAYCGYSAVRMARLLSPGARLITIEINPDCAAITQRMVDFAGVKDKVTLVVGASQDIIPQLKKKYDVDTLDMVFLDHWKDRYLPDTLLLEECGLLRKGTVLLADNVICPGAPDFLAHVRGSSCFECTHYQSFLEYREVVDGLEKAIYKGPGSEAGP

[2] = target: T2, beta-adrenoreceptor (Homo sapiens, UniProt P07550); settings: recent in vitro studies (Park 2005)
T2 construct: increase cAMP via beta 2-adrenoreceptors in myelocytic U937 cells; endogenous in cells; host or cells: U937 cells
T2 sequence (P07550 whole entry): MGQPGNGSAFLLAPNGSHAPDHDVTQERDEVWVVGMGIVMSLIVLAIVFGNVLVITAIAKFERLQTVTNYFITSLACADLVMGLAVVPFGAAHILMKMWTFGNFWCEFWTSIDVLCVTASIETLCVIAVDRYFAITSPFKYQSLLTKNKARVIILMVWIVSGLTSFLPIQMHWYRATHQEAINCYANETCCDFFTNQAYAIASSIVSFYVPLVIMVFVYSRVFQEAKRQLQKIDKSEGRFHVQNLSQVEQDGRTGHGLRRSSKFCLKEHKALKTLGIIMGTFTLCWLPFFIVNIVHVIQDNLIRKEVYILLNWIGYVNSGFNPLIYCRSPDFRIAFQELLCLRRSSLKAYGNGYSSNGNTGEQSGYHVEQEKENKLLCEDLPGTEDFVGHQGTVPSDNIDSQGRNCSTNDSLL

In the case of `O=C(/C=C/c1ccc(O)c(O)c1)O[C@@H]1C[C@](O)(C(=O)O)C[C@@H](O)[C@H]1O` [chlorogenic acid], the IC50 [1] is listed as 1300 to 1400 nM.

For `O=C(/C=C/c1ccc(O)cc1)NCCc1ccc(O)c(O)c1` [N-coumaroyldopamine], the beta-adrenoreceptor agonist activity [2] is given as “acts as a beta-adrenoreceptor agonist”.

For `O=c1c(O)c(-c2ccc(O)c(O)c2)oc2cc(O)cc(O)c12` [quercetin], the IC50 [1] is given as about 500 nM.
